Data from the NIST ThermoML archive (doi:10.1016/j.jct.2006.07.012).
± gives the expanded uncertainty stated by the source.

Conditions: Fluid (supercritical or subcritical phases), Bellows volumetry

CCC [propane]
mass density (280 K, 581.4 kPa): 519.39 ± 0.94 kg/m3
mass density (280 K, 604.8 kPa): 519.45 ± 0.94 kg/m3
mass density (280 K, 628.1 kPa): 519.49 ± 0.96 kg/m3
mass density (280 K, 651.4 kPa): 519.57 ± 0.97 kg/m3
mass density (280 K, 674.7 kPa): 519.62 ± 0.97 kg/m3
mass density (280 K, 698 kPa): 519.69 ± 0.94 kg/m3
mass density (280 K, 721.4 kPa): 519.75 ± 0.94 kg/m3
mass density (300 K, 1006 kPa): 489.83 ± 0.88 kg/m3
mass density (300 K, 1029.4 kPa): 489.89 ± 0.88 kg/m3
mass density (300 K, 1052.6 kPa): 489.98 ± 0.88 kg/m3
mass density (300 K, 1075.9 kPa): 490.05 ± 0.88 kg/m3
mass density (300 K, 1099.3 kPa): 490.1 ± 0.88 kg/m3
mass density (300 K, 1122.6 kPa): 490.2 ± 0.9 kg/m3
mass density (300 K, 1145.9 kPa): 490.3 ± 0.88 kg/m3
mass density (320 K, 1611.1 kPa): 455.49 ± 0.82 kg/m3
mass density (320 K, 1634.4 kPa): 455.61 ± 0.82 kg/m3
mass density (320 K, 1657.6 kPa): 455.75 ± 0.82 kg/m3
mass density (320 K, 1680.9 kPa): 455.88 ± 0.84 kg/m3
mass density (320 K, 1704.2 kPa): 455.99 ± 0.84 kg/m3
mass density (320 K, 1727.5 kPa): 456.09 ± 0.82 kg/m3
mass density (320 K, 1750.7 kPa): 456.24 ± 0.82 kg/m3
mass density (340 K, 2447.1 kPa): 412.74 ± 0.74 kg/m3
mass density (340 K, 2470.3 kPa): 412.98 ± 0.74 kg/m3
mass density (340 K, 2493.4 kPa): 413.23 ± 0.74 kg/m3
mass density (340 K, 2516.6 kPa): 413.48 ± 0.76 kg/m3
mass density (340 K, 2539.8 kPa): 413.66 ± 0.76 kg/m3
mass density (340 K, 2563 kPa): 413.88 ± 0.75 kg/m3
mass density (340 K, 2586.2 kPa): 414.08 ± 0.74 kg/m3
mass density (360 K, 3558 kPa): 346.61 ± 0.64 kg/m3
mass density (360 K, 3558.8 kPa): 346.43 ± 0.64 kg/m3
mass density (360 K, 3566.8 kPa): 346.83 ± 0.63 kg/m3
mass density (360 K, 3569.1 kPa): 347.17 ± 0.63 kg/m3
mass density (360 K, 3569.9 kPa): 346.97 ± 0.64 kg/m3
mass density (360 K, 3580.3 kPa): 347.61 ± 0.63 kg/m3
mass density (360 K, 3591.6 kPa): 348.04 ± 0.63 kg/m3
mass density (360 K, 3592.2 kPa): 347.94 ± 0.63 kg/m3
mass density (360 K, 3602.8 kPa): 348.46 ± 0.64 kg/m3
mass density (360 K, 3614 kPa): 348.96 ± 0.69 kg/m3
mass density (360 K, 3614.5 kPa): 348.91 ± 0.63 kg/m3
mass density (360 K, 3622.6 kPa): 349.31 ± 0.63 kg/m3
mass density (360 K, 3625.2 kPa): 349.4 ± 0.63 kg/m3
mass density (360 K, 3636.5 kPa): 349.82 ± 0.71 kg/m3
mass density (360 K, 3636.9 kPa): 349.82 ± 0.63 kg/m3
mass density (360 K, 3647.8 kPa): 350.25 ± 0.65 kg/m3
mass density (360 K, 3659 kPa): 350.7 ± 0.65 kg/m3
mass density (360 K, 3659.4 kPa): 350.7 ± 0.65 kg/m3
mass density (360 K, 3670.3 kPa): 351.13 ± 0.65 kg/m3
mass density (360 K, 3678.7 kPa): 351.52 ± 0.65 kg/m3
mass density (360 K, 3681.8 kPa): 351.59 ± 0.65 kg/m3
mass density (360 K, 3704.3 kPa): 352.44 ± 0.8 kg/m3
mass density (360 K, 3726.8 kPa): 353.19 ± 0.65 kg/m3
mass density (365 K, 3897.8 kPa): 317.84 ± 0.66 kg/m3
mass density (365 K, 3903 kPa): 318.4 ± 0.65 kg/m3
mass density (365 K, 3923.7 kPa): 320.49 ± 0.64 kg/m3
mass density (365 K, 3944.7 kPa): 322.39 ± 0.63 kg/m3
mass density (365 K, 3965.9 kPa): 324.14 ± 0.63 kg/m3
mass density (365 K, 3987.2 kPa): 325.86 ± 0.62 kg/m3
mass density (365 K, 4008.7 kPa): 327.39 ± 0.61 kg/m3
mass density (365 K, 4030.4 kPa): 328.84 ± 0.63 kg/m3
